Measurements: patent US20200299155A1, “BIOCIDAL COMPOSITIONS INCLUDING A PHOSPHONIUM QUATERNARY CATIONIC SURFACTANT AND METHODS FOR USING SAME” (Rhodia Operations, priority 2019, published 2020)

Experiments:
[1] = Physical compatibility studies (mixtures in vials, visual); format: physicochemical; settings: for compatibility with VDPA copolymer: in the presence of VDPA copolymer
Description: A first set of samples was made by combining Didecyldimethylammonium chloride (DDAC) Ammonium Quaternary Cationic Surfactant, and Tributyl Tetradecyl Phosphonium Chloride (TTPC). These ingredients were combined in a 20 mL borosilicate vial with a plastic cap to a total volume of 10 mLs so that the final concentration of DDAC was 5 wt. % active ingredient and the final concentration of TTPC was 1 wt. % active ingredient. The total volume was achieved by mixing with tap water (WTW). Samples were mixed, capped, and shaken vigorously and allowed to sit at room temperature for up to 24 hours. […] All weight percent values in the examples are wt. % active ingredient.
Another test sample consisted of 20 wt. % THPS, 2 wt. % VDPA copolymer biopenetrant, 4 wt. % DDAC, 4 wt. % TTPC, and 35 wt. % Ethylene Glycol Monobutyl Ether (EGMBE, which was used as a mutual solvent) (wt. % active ingredients) and was mixed as were the samples of Example 1 and brought to a total volume of 13.9 mLs with tap water (WTW).
(§1) Two additional samples were made. One was TTPC aqueous solution (50 wt. % a.i.) which was TTPC alone with the balance water (labelled TTPC). The other sample was made of 95 wt. % TTPC aqueous solution (50 wt. % a.i.) combined with a 5 wt. % VDPA copolymer aqueous solution (50 wt. % a.i.)(labelled TTPC+ESL). Thus, the final concentration on an active ingredient basis was 47.5% wt. % TTPC and 2.5 wt. % VDPA copolymer with the balance water. This comparison was made to determine the compatibility of the mixture without mutual solvent.

[2] = Storage stability of TTPC+ESL mixture at different temperatures; format: physicochemical; settings: −25° C.
Text: as §1
However, the sample was frozen at −25° C. TTPC was also frozen at −25 C.

[3] = system: Pseudomonas aeruginosa; assay: Biocidal efficacy study, Modified Robbins Device culture/biofilm; format: cell-based; settings: 100 ppm dosed, FIG. 4
Description: To test biocidal efficacy of TTPC in the presence of VDPA anionic copolymer two additional samples were made. One was 50 wt. % TTPC (a.i.) alone with the balance water (labelled TTPC). The other was TTPC combined with VDPA copolymer with the balance water (labelled TTPC A) which was 47.5% TTPC (a.i.) and 2.5% VDPA copolymer biopenetrant. A standard biofilm was grown with Pseudomonas aeruginosa, a known biofilm former and General Heterotrophic Bacteria (GHB), and treated with either the TTPC or TTPC A Series samples. Pseudomonas aeruginosa was cultured in a media of tryptone soy broth and grown at room temperature with gentle stirring. This culture solution was slowly passed through a Modified Robbins Device (MRD) from Tyler Research for approximately 6 weeks to establish a robust biofilm. Once the film was established, 100 ppm of TTPC Series or TTPC A Series was dosed to the biofilms and the efficacy of the biocide on the microorganisms was measured as shown in FIG. 4.

Row | state of sample at low temperature [2] | Compound | physical compatibility / appearance in tap water ([1]; balance tap water (WTW), room temperature, up to 24 hours) | compatibility with VDPA copolymer [1] | solubility in water ([1]; water) | efficacy against planktonic bacteria [3]
1 |  | CCCCCCCCCC[N+](C)(C)CCCCCCCCCC.[Cl-] [DDAC, Didecyldimethylammonium chloride] | some cloudiness | will precipitate | sparingly soluble in water | 
2 | frozen | CCCCCCCCCCCCCC[P+](CCCC)(CCCC)CCCC.Cl [TTPC, tributyl-tetradecylphosphonium chloride] |  |  |  | effective
3 |  | alkyldimethylbenzylammonium chloride [ADBAC] |  | will precipitate |  | 
